Measured values as given in patent US10316039B2, “P2X3 and/or P2X2/3 compounds and methods” (Asana Biosciences, LLC, priority 2013, dated 2019).
pIC50: −log10 of the molar value.

Key:
P2X3 = molecular target: T1, P2X3 (UniProt P56373); experiment: P2X3 FLIPR intracellular calcium assay; type: cell-based; details: agonist at EC75, species (human or rat) not given
T1 sequence (P56373 1-397): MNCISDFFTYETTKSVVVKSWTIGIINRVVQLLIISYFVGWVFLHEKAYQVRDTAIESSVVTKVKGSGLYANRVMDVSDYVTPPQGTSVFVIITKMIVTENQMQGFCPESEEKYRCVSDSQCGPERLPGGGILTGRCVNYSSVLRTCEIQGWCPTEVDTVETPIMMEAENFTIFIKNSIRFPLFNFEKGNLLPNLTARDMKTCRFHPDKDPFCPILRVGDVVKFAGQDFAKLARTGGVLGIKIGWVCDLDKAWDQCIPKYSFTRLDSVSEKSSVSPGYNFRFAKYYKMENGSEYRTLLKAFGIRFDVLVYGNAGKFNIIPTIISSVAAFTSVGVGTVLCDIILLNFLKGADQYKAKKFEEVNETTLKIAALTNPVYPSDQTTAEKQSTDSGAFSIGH
In short: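 Human P2X3-HEK, human P2X2/3-TRex293, rat P2X2/3-TRex293 or rat P2X3 TRex-CHO cells loaded with Calcium 4 dye (1.8 mM probenecid, pH 7.4).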

P2X2/3 = molecular target: T2, P2X2/3 (Homo sapiens, UniProt P56373+Q9UBL9); experiment: P2X2/3 FLIPR intracellular calcium assay; type: cell-based; details: agonist at EC75, species (human or rat) not given
T2 sequence (Q9UBL9 1-471): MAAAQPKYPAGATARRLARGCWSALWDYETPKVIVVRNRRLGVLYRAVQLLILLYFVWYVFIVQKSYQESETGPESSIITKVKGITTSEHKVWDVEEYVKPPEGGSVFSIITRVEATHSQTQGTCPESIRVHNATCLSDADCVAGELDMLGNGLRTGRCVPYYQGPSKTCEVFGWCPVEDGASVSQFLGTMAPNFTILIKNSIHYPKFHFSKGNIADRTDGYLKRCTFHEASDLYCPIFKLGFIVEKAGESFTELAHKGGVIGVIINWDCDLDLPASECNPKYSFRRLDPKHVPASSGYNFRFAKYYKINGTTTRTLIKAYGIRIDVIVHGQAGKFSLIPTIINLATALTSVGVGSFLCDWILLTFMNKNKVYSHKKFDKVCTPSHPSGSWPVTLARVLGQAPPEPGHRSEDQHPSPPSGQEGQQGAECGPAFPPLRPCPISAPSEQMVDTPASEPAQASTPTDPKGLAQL
T2 sequence (P56373 1-397): T1 sequence (P56373 1-397)
In short: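 Stable human P2X2/3 TRex293 cells (doxycycline-induced) loaded with Calcium 4 dye; compounds, 11-point half-log series from 2 mM top stock, preincubated 15 min at RT in HBSS/HEPES pH 7.4 with 1.8 mM CaCl2. Agonist added at EC75; fluorescence change versus no-compound wells gave IC50.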

pIC50 (P2X3)	pIC50 (P2X2/3)	SMILES
7.00 to 9.00	7.00 to 9.00	Cc1ccc(-c2cnc3c(-n4nnnc4CC(F)(F)F)cc(C(=O)N[C@@H](C)c4nnc[nH]4)cn23)s1 [Example 181]
7.00 to 9.00	7.00 to 9.00	Cc1ccc(-c2cnc3c(-n4nncc4C(C)(F)F)cc(C(=O)N[C@@H](C)c4nnc[nH]4)cn23)s1 [Example 70]
7.00 to 9.00	6.00 to 7.00	Cc1ncc(CNC(=O)c2cc(-n3nncc3CC(F)(F)F)c3ncc(-c4ncc(C)s4)n3c2)cn1 [Example 82]
7.00 to 9.00	6.00 to 7.00	COC1(C)CCN(c2cc(C(=O)N[C@@H](C)c3nnc[nH]3)cn3c(-c4ccc(C)s4)cnc23)CC1 [Example 139]
7.00 to 9.00	7.00 to 9.00	CCc1cnnn1-c1cc(C(=O)NCc2cnc(C)nc2)cn2c(-c3ccc(C)s3)cnc12 [Example 33]
6.00 to 7.00	5.00 to 6.00	Cc1ccc(-c2cnc3c(-n4nncc4C)cc(C(=O)N[C@H](c4nnc[nH]4)C(C)C)cn23)s1 [Example 74]
7.00 to 9.00	7.00 to 9.00	Cc1cnc(CNC(=O)c2cc(-n3nncc3C(F)F)c3ncc(-c4ccc(C)o4)n3c2)cn1 [Example 78]
7.00 to 9.00	7.00 to 9.00	Cc1ccc(CNC(=O)c2cc(-n3nncc3C(F)(F)F)c3ncc(-c4ccc(C)s4)n3c2)cn1 [Example 30]
7.00 to 9.00	6.00 to 7.00	Cc1ccc(-c2cnc3c(-n4nncc4C)cc(C(=O)N[C@@H](C)c4nnc[nH]4)cn23)s1 [Example 29]
7.00 to 9.00	6.00 to 7.00	Cc1ccc(-c2cnc3c(N(C)C(=O)C(C)C)cc(C(=O)N[C@@H](C)c4nnc[nH]4)cn23)s1 [Example 20, (S)—N-(1-(4H-1,2,4-Triazol-3-yl)ethyl)-8-(N-methylisobutyramido)-3-(5-methylthiophen-2-yl)imidazo[1,2-a]pyridine-6-carboxamide]
7.00 to 9.00	7.00 to 9.00	Cc1cnc(CNC(=O)c2cc(-n3nncc3C(F)F)c3ncc(-c4ccc(C)s4)n3c2)cn1 [Example 32]
< 5.00	7.00 to 9.00	Cc1ccc(CNC(=O)c2cc(-n3nnnc3C3CCC3)c3ncc(-c4ccc(C)s4)n3c2)cn1 [Example 155]
6.00 to 7.00	6.00 to 7.00	Cc1ccc(CNC(=O)c2cc(-n3nnnc3CO)c3ncc(-c4ccc(C)s4)n3c2)cn1 [Example 17, 8-(5-(Hydroxymethyl)-1H-tetrazol-1-yl)-N-((6-methylpyridin-3-yl)methyl)-3-(5-methylthiophen-2-yl)imidazo[1,2-a]pyridine-6-carboxamide]
6.00 to 7.00	5.00 to 6.00	CCc1nnc(-c2cc(C(=O)N[C@@H](C)c3nnc[nH]3)cn3c(-c4ccc(C)s4)cnc23)o1 [Example 1, (S)—N-(1-(4H-1,2,4-Triazol-3-yl)ethyl)-8-(5-ethyl-1,3,4-oxadiazol-2-yl)-3-(5-methylthiophen-2-yl)imidazo[1,2-a]pyridine-6-carboxamide]
7.00 to 9.00	7.00 to 9.00	Cc1ccc(-c2cnc3c(-n4nnnc4C(F)F)cc(C(=O)N[C@@H](C)c4nnc[nH]4)cn23)s1 [Example 168]
< 5.00	7.00 to 9.00	Cc1ncc(CNC(=O)c2cc(-n3nncc3C(C)C)c3ncc(-c4ccc(C)s4)n3c2)cn1 [Example 40]
7.00 to 9.00	6.00 to 7.00	Cc1cnc(-c2cnc3c(-n4nncc4C(C)(C)C)cc(C(=O)N[C@@H](C)c4nnc[nH]4)cn23)s1 [Example 57]
7.00 to 9.00	5.00 to 6.00	CCc1nnnn1-c1cc(C(=O)NC(C)c2cnccn2)cn2c(-c3ccc(C)s3)cnc12 (stereo not shown) [Example 162]
< 5.00	7.00 to 9.00	Cc1ncc(CNC(=O)c2cc(-n3nncc3C3CCC3)c3ncc(-c4ccc(C)s4)n3c2)cn1 [Example 49]
7.00 to 9.00	7.00 to 9.00	Cc1cnc(-c2cnc3c(-n4nncc4C(F)F)cc(C(=O)N[C@@H](C)c4nnc[nH]4)cn23)s1 [Example 53]
7.00 to 9.00	7.00 to 9.00	Cc1ccc(-c2cnc3c(-n4nnnc4CC4CC4)cc(C(=O)N[C@@H](C)c4nnc[nH]4)cn23)s1 [Example 166]
7.00 to 9.00	7.00 to 9.00	Cc1ccc(-c2cnc3c(-n4nncc4C(F)F)cc(C(=O)N[C@@H](C)c4nnc[nH]4)cn23)o1 [Example 60]

pIC50 (P2X3)	pIC50 (P2X2/3)	SMILES
7.00 to 9.00	7.00 to 9.00	C[C@H](NC(=O)c1cc(-n2nncc2C(F)(F)F)c2ncc(-c3ccc(Cl)s3)n2c1)c1nnc[nH]1 [Example 79]
7.00 to 9.00	7.00 to 9.00	Cc1ccc(-c2cnc3c(N4CCC(C)(C(N)=O)CC4)cc(C(=O)N[C@@H](C)c4nnc[nH]4)cn23)s1 [Example 12, (S)—N-(1-(4H-1,2,4-Triazol-3-yl)ethyl)-8-(4-carbamoyl-4-methylpiperidin-1-yl)-3-(5-methylthiophen-2-yl)imidazo[1,2-a]pyridine-6-carboxamide]
6.00 to 7.00	6.00 to 7.00	Cc1ccc(-c2cnc3c(NC4CCCC4)cc(C(=O)N[C@@H](C)c4nnc[nH]4)cn23)s1 [Example 135]
7.00 to 9.00	7.00 to 9.00	COc1ncc(CNC(=O)c2cc(-n3nncc3C3CC3)c3ncc(-c4ccc(C)s4)n3c2)cn1 [Example 42]
7.00 to 9.00	7.00 to 9.00	Cc1noc(C(C)NC(=O)c2cc(-n3nnnc3C(F)F)c3ncc(-c4ccc(C)s4)n3c2)n1 (stereo in doubt) [Example 19, (R)-8-(5-(Difluoromethyl)-1H-tetrazol-1-yl)-N-(1-(3-methyl-1,2,4-oxadiazol-5-yl)ethyl)-3-(5-methylthiophen-2-yl)imidazo[1,2-a]pyridine-6-carboxamide]
7.00 to 9.00	7.00 to 9.00	CC[C@H](NC(=O)c1cc(-n2nnnc2C(F)F)c2ncc(-c3ccc(C)s3)n2c1)c1nnc[nH]1 [Example 171]
7.00 to 9.00	6.00 to 7.00	Cc1cnc(CNC(=O)c2cc(-n3nncc3C(F)F)c3ncc(-c4ncc(C)s4)n3c2)cn1 [Example 77]
7.00 to 9.00	7.00 to 9.00	Cc1ccc(-c2cc(C(=O)N[C@@H](C)c3nnc[nH]3)cn3c(-c4ccc(C)s4)cnc23)s1 [Example 101]
< 5.00	6.00 to 7.00	Cc1ccc(CNC(=O)c2cc(-n3c(C)cnc3C)c3ncc(-c4ccc(C)s4)n3c2)cn1 [Example 2, 8-(2,5-Dimethyl-1H-imidazol-1-yl)-N-((6-methylpyridin-3-yl)methyl)-3-(5-methylthiophen-2-yl)imidazo[1,2-a]pyridine-6-carboxamide]
5.00 to 6.00	6.00 to 7.00	Cc1ccc(CNC(=O)c2cc(-c3cnn(C)c3)c3ncc(-c4ccc(C)s4)n3c2)cn1 [Example 98]
7.00 to 9.00	6.00 to 7.00	Cc1ncc(CNC(=O)c2cc(-n3nncc3C(C)(F)F)c3ncc(-c4ncc(C)s4)n3c2)cn1 [Example 71]
7.00 to 9.00	7.00 to 9.00	Cc1ccc(-c2cnc3c(-c4c(C)n[nH]c4C)cc(C(=O)N[C@@H](C)c4nnc[nH]4)cn23)s1 [Example 110]
7.00 to 9.00	6.00 to 7.00	CCc1cnnn1-c1cc(C(=O)N[C@@H](C)c2nnc[nH]2)cn2c(-c3ccc(C)s3)cnc12 [Example 23]
< 5.00	7.00 to 9.00	Cc1noc([C@@H](C)NC(=O)c2cc(-n3nnnc3C(C)(F)F)c3ncc(-c4ccc(C)s4)n3c2)n1 [Example 186]
7.00 to 9.00	6.00 to 7.00	Cc1ccc(-c2cnc3c(N4CCC(C)(C)CC4)cc(C(=O)N[C@@H](C)c4nnc[nH]4)cn23)s1 [Example 129]
7.00 to 9.00	6.00 to 7.00	CCC(=O)N(c1cc(C(=O)N[C@@H](C)c2nnc[nH]2)cn2c(-c3ccc(C)s3)cnc12)C1CC1 [Example 188]
7.00 to 9.00	6.00 to 7.00	Cc1ccc(CNC(=O)c2cc(-n3nnnc3C)c3ncc(-c4ccc(C)s4)n3c2)cn1 [Example 157]
7.00 to 9.00	7.00 to 9.00	Cc1noc(C)c1-c1cc(C(=O)N[C@@H](C)c2nnc[nH]2)cn2c(-c3ccc(Cl)s3)cnc12 [Example 107]
6.00 to 7.00	6.00 to 7.00	COc1ncc(CNC(=O)c2cc(-n3nncc3C(F)(F)F)c3ncc(-c4ncc(C)s4)n3c2)cn1 [Example 86]
7.00 to 9.00	6.00 to 7.00	Cc1ccc(CNC(=O)c2cc(-n3nncc3C(F)(F)F)c3ncc(-c4ncc(C)s4)n3c2)cn1 [Example 56]
7.00 to 9.00	7.00 to 9.00	CCc1cnnn1-c1cc(C(=O)NCc2cnc(C)cn2)cn2c(-c3ccc(C)s3)cnc12 [Example 24]
5.00 to 6.00	6.00 to 7.00	Cc1cnc(CNC(=O)c2cc(N3CCC(C)CC3)c3ncc(-c4ccc(C)s4)n3c2)cn1 [Example 116]
